According to ChEMBL document CHEMBL1201862, “PubChem BioAssay data set” (2004):
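1) Cells in 96-well plates. 2) Compound, 48 h, 5 concentrations. 3) Linear interpolation between surrounding doses. 4) Unreached endpoint = highest concentration. The concentration for 50% growth inhibition is given as GI50.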 Activity calls are given as the source filed them. Cut-off read from the data, not from the text of the source: active = GI50 up to about 1.1 µM and inactive = higher.

What was measured:
Test in all cases: DTP human tumour cell line panel, 48 h
OVCAR-3 = tested on: OVCAR-3
HOP-62 = tested on: HOP-62
M19-MEL = tested on: M19-MEL
OVCAR-8 = tested on: OVCAR-8
RPMI-8226 = tested on: RPMI-8226
CCRF-CEM = tested on: CCRF-CEM
SNB-19 = tested on: SNB-19
NCI-H23 = tested on: NCI-H23
COLO 205 = tested on: COLO 205
HCC 2998 = tested on: HCC 2998
CAKI-1 = tested on: CAKI-1
UACC-257 = tested on: UACC-257
SK-OV-3 = tested on: SK-OV-3
HCT-15 = tested on: HCT-15
HT-29 = tested on: HT-29
SN12C = tested on: SN12C
HOP-92 = tested on: HOP-92
NCI-H226 = tested on: NCI-H226
SK-MEL-28 = tested on: SK-MEL-28

Row | Structure (SMILES) | GI50 (OVCAR-3) | GI50 (HOP-62) | GI50 (M19-MEL) | GI50 (OVCAR-8) | GI50 (RPMI-8226) | GI50 (CCRF-CEM) | GI50 (SNB-19) | GI50 (NCI-H23) | GI50 (COLO 205) | GI50 (HCC 2998) | GI50 (CAKI-1) | GI50 (UACC-257) | GI50 (SK-OV-3) | GI50 (HCT-15) [µM] | GI50 (HT-29) | GI50 (SN12C) | GI50 (HOP-92) | GI50 (NCI-H226) | GI50 (SK-MEL-28)
1 | Cc1nc2c(o1)/C(=N\c1ccccc1)c1ccccc1C2=O | 2.54 µM (inactive) | 13.5 µM (inactive) | 1.86 µM (inactive) | 3.67 µM (inactive) | 5.66 µM (inactive) | 10.9 µM (inactive) | 11.5 µM (inactive) | 1.9 µM (inactive) | 15.8 µM (inactive) | 18.6 µM (inactive) | 18.4 µM (inactive) | 5.97 µM (inactive) | 14.8 µM (inactive) | 8.11 | 18.7 µM (inactive) | 10.1 µM (inactive) | 12.3 µM (inactive) |  | 
2 | O=C1C=C[C@@]23CC1C(O)C[C@H]2C=Cc1ccccc13 (stereo partly drawn) | > 100 µM (inactive) | > 100 µM (inactive) | > 100 µM (inactive) | > 100 µM (inactive) | > 100 µM (inactive) | > 100 µM (inactive) | > 100 µM (inactive) |  | > 100 µM (inactive) | > 100 µM (inactive) | > 100 µM (inactive) | > 100 µM (inactive) | > 100 µM (inactive) | 82.2 | > 100 µM (inactive) | > 100 µM (inactive) | > 100 µM (inactive) | > 100 µM (inactive) | 
3 | CC1=CCC(O)C=CC(C)C(O)C(C)C=C(C)C(=O)c2c(O)c(C)cc3c2C(=O)C(N)=C(NC(=O)/C=C\C=C/C=CC(C)C(O)CC1=O)C3=O (stereo not drawn) | 64.4 µM (inactive) | > 100 µM (inactive) | > 100 µM (inactive) | > 100 µM (inactive) | > 100 µM (inactive) | 67.6 µM (inactive) | > 100 µM (inactive) | > 100 µM (inactive) | 37.1 µM (inactive) | > 100 µM (inactive) | > 100 µM (inactive) | > 100 µM (inactive) | > 100 µM (inactive) | > 100 | > 100 µM (inactive) | > 100 µM (inactive) | > 100 µM (inactive) | > 100 µM (inactive) | > 100 µM (inactive)
4 | COc1cc([C@H]2c3cc4c(cc3[C@H](NCc3ccc(F)cc3)C3COC(=O)[C@H]32)OCO4)cc(OC)c1O (stereo partly drawn) | 11.1 µM (inactive) | 1.23 µM (inactive) | 7.59 µM (inactive) | 4.3 µM (inactive) | 2.31 µM (inactive) | 0.923 µM (active) | 2.44 µM (inactive) | 2.22 µM (inactive) | 13.6 µM (inactive) | 10.5 µM (inactive) |  | 14.8 µM (inactive) | 2.87 µM (inactive) | 2.29 | 11.2 µM (inactive) | 1.96 µM (inactive) | 2.57 µM (inactive) | 2.03 µM (inactive) | 11 µM (inactive)
5 | O=C1c2ccccc2C(=O)C1(Cl)C1(S(=O)(=O)O)c2ccccc2-c2ccccc21 | > 100 µM (inactive) | > 100 µM (inactive) | > 100 µM (inactive) | > 100 µM (inactive) | > 100 µM (inactive) | > 100 µM (inactive) |  | > 100 µM (inactive) | > 100 µM (inactive) | > 100 µM (inactive) | > 100 µM (inactive) | > 100 µM (inactive) | > 100 µM (inactive) | > 100 | > 100 µM (inactive) | > 100 µM (inactive) | > 100 µM (inactive) | > 100 µM (inactive) | > 100 µM (inactive)
6 | O=C(c1ccccc1)N1CCN2CCN=C(c3ccccc3)C21c1ccccc1 (stereo not drawn) | 79.1 µM (inactive) | > 100 µM (inactive) | 81.7 µM (inactive) | > 100 µM (inactive) | 25.5 µM (inactive) | 61.9 µM (inactive) | 38 µM (inactive) | 80.2 µM (inactive) | > 100 µM (inactive) | > 100 µM (inactive) |  | 25.8 µM (inactive) | > 100 µM (inactive) |  | > 100 µM (inactive) |  | 17.1 µM (inactive) | 19.5 µM (inactive) | > 100 µM (inactive)
7 | COc1c(C)cc(O)cc1C=O | > 100 µM (inactive) | > 100 µM (inactive) | > 100 µM (inactive) | > 100 µM (inactive) | > 100 µM (inactive) | > 100 µM (inactive) | > 100 µM (inactive) |  | > 100 µM (inactive) | > 100 µM (inactive) | > 100 µM (inactive) | > 100 µM (inactive) | > 100 µM (inactive) | > 100 | > 100 µM (inactive) | > 100 µM (inactive) | > 100 µM (inactive) | > 100 µM (inactive) | > 100 µM (inactive)
8 | O=C(/C=C(\O)C(=O)O)/C=C(\O)c1ccc(Cl)cc1 | > 100 µM (inactive) | > 100 µM (inactive) | > 100 µM (inactive) | > 100 µM (inactive) | > 100 µM (inactive) | > 100 µM (inactive) | > 100 µM (inactive) | > 100 µM (inactive) | > 100 µM (inactive) | > 100 µM (inactive) | > 100 µM (inactive) | > 100 µM (inactive) | > 100 µM (inactive) | > 100 | > 100 µM (inactive) | > 100 µM (inactive) | > 100 µM (inactive) | > 100 µM (inactive) | > 100 µM (inactive)
9 | CN(C)c1ccc(/C=C2\CCc3ccccc3C2=O)cc1Br | 49 µM (inactive) | > 100 µM (inactive) | 49.4 µM (inactive) | 41.1 µM (inactive) | 24.8 µM (inactive) | 36 µM (inactive) | > 100 µM (inactive) | 68.7 µM (inactive) | 68.9 µM (inactive) | > 100 µM (inactive) | 36.4 µM (inactive) | 43.6 µM (inactive) | > 100 µM (inactive) | 71.1 | 33.1 µM (inactive) | > 100 µM (inactive) | 62.7 µM (inactive) | > 100 µM (inactive) | 71.1 µM (inactive)
10 | CCN(CC)C(=O)CNC(=O)OC(C)(C)C | > 100 µM (inactive) | > 100 µM (inactive) | > 100 µM (inactive) | > 100 µM (inactive) | > 100 µM (inactive) | > 100 µM (inactive) | > 100 µM (inactive) | > 100 µM (inactive) |  | > 100 µM (inactive) | > 100 µM (inactive) | > 100 µM (inactive) | > 100 µM (inactive) | > 100 | > 100 µM (inactive) | > 100 µM (inactive) | > 100 µM (inactive) | > 100 µM (inactive) | > 100 µM (inactive)
11 | COc1ccc(C(=O)O)c2c(=O)c3ccccc3[nH]c12 | > 10 µM (inactive) | > 31.6 µM (inactive) | > 100 µM (inactive) | > 100 µM (inactive) | > 100 µM (inactive) | > 31.6 µM (inactive) | > 100 µM (inactive) | > 100 µM (inactive) | > 100 µM (inactive) | > 100 µM (inactive) | > 100 µM (inactive) | > 100 µM (inactive) | > 100 µM (inactive) | > 100 | > 100 µM (inactive) | > 100 µM (inactive) | > 100 µM (inactive) | > 100 µM (inactive) | > 100 µM (inactive)
12 | O=C1c2c(O)cccc2C(C(=O)CCCCCC(=O)C2c3cccc(O)c3C(=O)c3c(O)cccc32)c2cccc(O)c21 | 0.938 µM (active) | 2.88 µM (inactive) | 0.857 µM (active) | 1.53 µM (inactive) | 0.741 µM (active) | 1.36 µM (inactive) | 0.973 µM (active) | 0.692 µM (active) | 1.98 µM (inactive) | 2.27 µM (inactive) | 4.5 µM (inactive) | 0.755 µM (active) | 0.879 µM (active) | 1 | 4.49 µM (inactive) | 1.04 µM (active) | 7.98 µM (inactive) | 3.64 µM (inactive) | 0.804 µM (active)
13 | CC1=Nc2ccccc2NC(c2ccoc2)C1 (stereo not drawn) | > 100 µM (inactive) | > 100 µM (inactive) | > 100 µM (inactive) | > 100 µM (inactive) | > 100 µM (inactive) | > 100 µM (inactive) | > 100 µM (inactive) | > 100 µM (inactive) | > 100 µM (inactive) | > 100 µM (inactive) | > 100 µM (inactive) | > 100 µM (inactive) | > 100 µM (inactive) | > 100 | > 100 µM (inactive) | > 100 µM (inactive) | > 100 µM (inactive) | > 100 µM (inactive) | > 100 µM (inactive)
14 | CCCCCCCCOCC(COC(=O)CCCCCCC)OC(=O)CCCCCCC (stereo not drawn) | > 100 µM (inactive) | > 100 µM (inactive) | > 100 µM (inactive) | > 100 µM (inactive) | > 100 µM (inactive) | 57 µM (inactive) | > 100 µM (inactive) | > 100 µM (inactive) | > 100 µM (inactive) | > 100 µM (inactive) | > 100 µM (inactive) | > 100 µM (inactive) | > 100 µM (inactive) | > 100 | > 100 µM (inactive) | > 100 µM (inactive) | 51.5 µM (inactive) | > 100 µM (inactive) | > 100 µM (inactive)
15 | CC(=O)c1cccc(NC(=O)C(=O)Nn2c(N)nnc2N)c1 |  | > 100 µM (inactive) | > 100 µM (inactive) | > 100 µM (inactive) | > 100 µM (inactive) | > 100 µM (inactive) | > 100 µM (inactive) | > 100 µM (inactive) | > 100 µM (inactive) | > 100 µM (inactive) | > 100 µM (inactive) | > 100 µM (inactive) | > 100 µM (inactive) | > 100 | > 100 µM (inactive) | > 100 µM (inactive) | > 100 µM (inactive) | > 100 µM (inactive) | > 100 µM (inactive)
